{"source": "patent US10172957B2", "about": "“Acid-labile lipophilic prodrugs of cancer chemotherapeutic agents” (priority 2011, dated 2019)", "system": "SK-N-AS cells (MDR− Neuroblastoma)", "assay": "MTS proliferation assay using SK-N-AS cells", "assay_type": "cell-based", "details": "Homo sapiens, SK-N-AS, read-out: IC50 in SK-N-AS", "procedure": "SK-N-AS cells were plated in appropriate growth medium at 5×10^3 per well in 100 μL in 96 well tissue culture plates, Falcon, one plate for each drug to be tested. Column 1 was blank; it contained medium, but no cells. The plates were incubated overnight at 37° C. in 5% CO2 to allow attachment.\nDrug diluted in culture media was added to the cells at a concentration of 0.005 nM to 10 μM, in quadruplicate. After 48-72 hours of drug exposure, the MTS agent was added to all wells and incubated 1-6 hrs (37° C., 5% CO2), depending on cell type, as per CellTiter 96® AQueous Non-Radioactive Cell Proliferation Assay (MTS), Promega. Plates were processed using a Bio-Tek Synergy HT Multi-detection microtiter plate reader at 490 nanometer wavelength and data were processed with KC4V.3 software. Data plots of drug concentration vs. absorbance were plotted and the concentration resulting in 50% inhibition (IC50) was extrapolated for each of the tested compounds.\nAs summarized in Table 1, the IC50 value for each tested compound in the SK-N-AS cell line was determined. The clinical comparator drug, paclitaxel, was included in the experiment to allow comparison of the results of the candidate compounds to a clinically relevant standard in the taxane class."}
{"smiles": "CCCCCCCCCCCCCCCC1OCC(COC(=O)O[C@@H]2C(=O)C=C(C)[C@@H]3C[C@H]4OC(=O)C(OC(=O)CC(O)(C(C)C)C(C)C)C5[C@@H](C)[C@@H](O)[C@@]6(O)OC[C@@]54C6[C@@]23C)O1", "note": "(stereo partly shown) [ART 488]", "values": [{"measurement": "IC50", "value": "330 ± 100", "unit": "pM"}]}
